Data: publication PMC11648822, “Lactam Truncation Yields a Dihydroquinazolinone Scaffold with Potent Antimalarial Activity that Targets PfATP4” (Chemmedchem, 2024)
Like-named read-outs stand apart in the source and are kept apart here.

Tests used:
P. berghei ANKA = test: P. berghei 4-day mouse model; format: in vivo; conditions: 30 mg/kg p.o. q.d.
Procedure: In this model, mice are infected with P. berghei ANKA asexual blood stage parasites. Compounds are then administered by oral gavage at 20 mg/kg 2, 24, 48, and 72 hours after the parasite infection.
Each day, a fresh aliquot of the compound stock was diluted 1/10 in water for administration to mice. 8 week old female mice (Ozgene) on day 0 were infected with 2×10^7 P. berghei ANKA‐infected erythrocytes. […] 2 mice were also dosed with artesunate using the same regime at 30 mg/kg. The parasitemia of mice was assessed by visualizing Giemsa‐stained thin blood smears by microscopy and a minimum of 1000 RBCs were counted. To calculate the percent antimalarial activity the following formula was used: 100 ‐ (mean parasitemia treated day 4 post‐infection/mean parasitemia vehicle control day 4 post‐infection)×100. Mice were culled the day following the last oral gavage.
Briefly, ‘donor’ female Swiss mice were infected intraperitoneally (IP) with blood stage P. berghei parasites constitutively expressing GFP (P. berghei ANKA GFPcon 259cl2).[36] Three days later, groups of 3 ‘acceptor’ Swiss mice were infected intravenously with 1 x 10^7 parasitised red blood cells from the ‘donor mice’. […] Control mice were left untreated. Peripheral blood samples were taken 24 h after administration of the last dose, and parasitemia was measured by flow cytometry (proportion of GFP‐positive cells in 100,000 recorded events using Attune Nxt, ThermoFisher) and microscopic analysis of Giemsa‐stained blood smears. Parasitemia values were averages of 3 mice per group.

[1] = tested on: P. falciparum Dd2 PfATP4^F156L strain; test: 'compound 49' resistant parasite viability assay (LDH), Dd2 F156L; format: cell-based; conditions: Plasmodium falciparum, DD2, 72 h, read-out: Dd2^F156L EC50 (SD)
Procedure: (§1) These assays were performed according to a previously described protocol.[16] Briefly, P. falciparum Dd2 strains treated with compound were incubated for 72 h at 37 °C. After incubating for 72 h, plates were frozen at −80 °C and then thawed at room temperature for at least 2 h. LDH activity, a surrogate for parasite growth was measured by the addition of the Malstst reagent mix, followed by incubation for 30 min and absorbance read using a ClarioStar Microplate reader at 650 nm. Values were normalized to DMSO control as a percentage and EC50 and dose response curves generated using GraphPad Prism.

[2] = tested on: P. falciparum Dd2 PfATP4^G358S strain; parameters: method as in Ashton, Dans et al. 10; conditions: ref Ashton, Dans et al. 10; cited from earlier work
[3] = tested on: P. falciparum Dd2 parental strain; parameters: method as in Ashton, Dans et al. 10; conditions: LDH at 72 h; ref Ashton, Dans et al. 10; cited from earlier work
[4] = tested on: P. falciparum Dd2 PfATP4^D425E strain; test: 'compound 49' resistant parasite viability assay (LDH), Dd2 D425E; format: cell-based; conditions: Plasmodium falciparum, DD2, 72 h, read-out: Dd2^D425E EC50 (SD)
Procedure: as §1

[5] = tested on: P. falciparum Dd2 strain with 2.8-fold amplification in PfATP4; test: 'compound 49' resistant parasite viability assay (LDH), Dd2 2.8 CNV; format: cell-based; conditions: Plasmodium falciparum, DD2, 72 h, read-out: Dd2^2.8 CNV EC50 (SD)
Procedure: as §1

[6] = Figure 1; cited from earlier work
[7] = tested on: P. falciparum (Pf) 3D7 parasites; parameters: method as in PMID 36812492, PMID 39134060; conditions: Figure 1; cited from earlier work
[8] = parameters: method as in PMID 39134060; conditions: 25 mg/kg oral dose, 4-day model; recrudescence detected after day 4; cited from earlier work
[9] = tested on: P. falciparum Dd2 PfATP4^triple (I398F, P990R, D1247Y) strain; parameters: method as in Ashton, Dans et al. 10; conditions: ref Ashton, Dans et al. 10; cited from earlier work
[10] = tested on: P. falciparum Dd2 PfATP4^G358S strain; test: PfATP4 drug resistant parasite viability assay (LDH), Dd2 G358S; format: cell-based; conditions: Plasmodium falciparum, DD2, 72 h, read-out: Dd2^G358S EC50 (SD)
Procedure: as §1

P. falciparum Dd2 = test: P. falciparum viability assay (SYBR green), Dd2; format: cell-based; conditions: Plasmodium falciparum, DD2, 72 h, read-out: P. falciparum parental EC50 (SD) Dd2
Procedure: (§2) These assays were performed as previously described.[16] P. falciparum 3D7 parasites and resistant lines Dd2, W2mef, 7G8, and artemisinin‐resistant Cambodian isolate (Cam3.I (2539T)), and P. knowlesi YH1, were cultured in human O^+ erythrocytes (RBCs) (Australian Red Cross Blood Service), in RPMI‐HEPES culture medium (pH 7.4, 50 μg/mL hypoxanthine, 25 mM NaHCO3, 20 μg/mL gentamicin, 0.5 % Albumax II (GibcoBRL)) (Thermo Fisher Scientific) and maintained in an atmosphere of 1 % O2, 4 % CO2 and 95 % N2. Parasites were synchronised with 5 % (w/v) sorbitol (Sigma‐Aldrich) treatments for ring stages. Growth assays for measuring drug inhibition of in‐cycle, ring to schizont stage parasites have been described previously. Parasites were grown in 1 % haematocrit, at 1 % and 2 % parasitaemia for P. falciparum and P. knowlesi respectively. […] Parasitaemia was measured using a SYBR DNA staining assay on a fluorometer.[33] After the incubation period, supernatants were removed and well contents were resuspended in PBS.

P. falciparum W2^mef = test: Multidrug-resistant parasite viability assay (SYBR green), W2mef; format: cell-based; conditions: Plasmodium falciparum, W2, 72 h, read-out: multidrug resistant P. falciparum strains EC50 (SD) W2^mef
Procedure: as §2

[11] = Human HepG2 cytotoxicity assay (Cell Titre Glo); format: cell-based; conditions: HepG2 cells, growth inhibition at 48 h, 4 replicate experiments, read-out: HepG2 CC50 (SD)
Source text: This assay uses Cell TitreGlo as a metabolic maker for human HepG2 cell growth and uses a protocol previously described.[32]

[12] = tested on: P. falciparum Dd2 parental strain; test: PfATP4 drug resistant parasite viability assay (LDH), Dd2 parental; format: cell-based; conditions: Plasmodium falciparum, DD2, 72 h, read-out: Dd2^parental EC50 (SD)
Procedure: as §1

P. falciparum 7G8 = test: Multidrug-resistant parasite viability assay (SYBR green), 7G8; format: cell-based; conditions: Plasmodium falciparum, 7G8, 72 h, read-out: multidrug resistant P. falciparum strains EC50 (SD) 7G8
Procedure: as §2

[13] = tested on: P. falciparum 3D7 parasites; test: P. falciparum viability assay (SYBR green), 3D7; format: cell-based; conditions: Plasmodium falciparum, 3D7; SYBR green, 72 h; read-out: P. falciparum parental EC50 (SD) 3D7
Procedure: (§3) These assays were performed as previously described.[16] […] Parasites were synchronised with 5 % (w/v) sorbitol (Sigma‐Aldrich) treatments for ring stages. […] Parasites were grown in 1 % haematocrit, at 1 % and 2 % parasitaemia for P. falciparum and P. knowlesi respectively. […] Parasitaemia was measured using a SYBR DNA staining assay on a fluorometer.[33] After the incubation period, supernatants were removed and well contents were resuspended in PBS.

[14] = tested on: P. knowlesi YH1 parasites; test: P. knowlesi viability assay (SYBR green); format: cell-based; conditions: Plasmodium knowlesi, 48 h, read-out: P. knowlesi EC50 (SD) YH1
Procedure: as §3

[15] = tested on: P. falciparum (Pf) 3D7 parasites; test: P. falciparum LDH viability assay; format: cell-based; conditions: Plasmodium falciparum, 3D7, 72 h, LDH activity at 72 h; mean and SD of 3 independent experiments
Source text: This assay is a platform assay conducted at the Walter and Eliza Hall Institute and uses a protocol previously decsribed.[30, 31]

P. falciparum CAM3.1 = test: Multidrug-resistant parasite viability assay (SYBR green), CAM3.1; format: cell-based; conditions: Plasmodium falciparum, 72 h, read-out: multidrug resistant P. falciparum strains EC50 (SD) CAM3.1
Procedure: as §2

[16] = tested on: P. falciparum Dd2 PfATP4^triple (I398F, P990R, D1247Y) strain; test: PfATP4 drug resistant parasite viability assay (LDH), Dd2 triple; format: cell-based; conditions: Plasmodium falciparum, DD2, 72 h, read-out: Dd2^triple EC50 (SD)
Procedure: as §1

SMILES: C[C@H]1[C@H](OC(=O)CCC(=O)O)O[C@@H]2O[C@@]3(C)CC[C@H]4[C@H](C)CC[C@@H]1[C@@]24OO3 [artesunate, reference compound]
- % parasitemia (P. berghei ANKA; day 4): 0.66%
- % reduction in parasitemia (P. berghei ANKA; day 4, versus control): 96%

SMILES: N#Cc1cc(NC(=O)[C@H]2c3ccccc3C(=O)N(CC(F)(F)F)[C@@H]2c2cccnc2)ccc1F [SJ733, reference compound]
- EC50 [1]: 0.135 µM
- EC50 [2]: > 11 µM
- EC50 [3]: 0.068 µM
- EC50 [4]: 0.08 µM
- EC50 [5]: 0.129 µM

SMILES: CN1C(=O)c2c(F)cc(-c3cnn(C)c3)cc2N2C(=O)CCC12C(=O)Nc1cncc(Cl)c1 (stereo not shown) [S-WJM992 (5)]
- Rat hepatocytes CLint [6]: 14 μL/min/10^6 cells
- EC50 [7]: 0.008 µM
- effect on parasitemia [8]: cleared parasitemia

SMILES: C[C@H]1Cc2c([nH]c3cc(Cl)c(F)cc23)[C@@]2(N1)C(=O)Nc1ccc(Cl)cc12 [KAE609, reference compound]
- EC50 [1]: 0.004 µM
- EC50 [4]: 0.002 µM
- EC50 [9]: 0.009 µM
- EC50 [5]: 0.003 µM

SMILES: CN1C(=O)c2ccc(Cl)cc2NC1(C)C(=O)Nc1cccc(Cl)c1 (stereo not shown) [Compound 11, 7‐Chloro‐N‐(3‐chlorophenyl)‐2,3‐dimethyl‐4‐oxo‐1,2,3,4‐tetrahydroquinazoline‐2‐carboxamide]
- EC50 [1]: 0.041 µM
- EC50 [10]: 0.044 µM
- EC50 (P. falciparum Dd2): 0.017 µM
- EC50 (P. falciparum W2^mef): 0.009 µM
- CC50 at 48 h [11]: > 40 µM
- EC50 [12]: 0.021 µM
- EC50 (P. falciparum 7G8): 0.033 µM
- EC50 [13]: 0.014 µM
- EC50 [14]: 0.065 µM
- EC50 [15]: 0.018 µM
- EC50 [4]: 0.036 µM
- EC50 (P. falciparum CAM3.1): 0.013 µM
- EC50 [5]: 0.04 µM
- EC50 [16]: 0.14 µM
